Experimental data: patent publication US9376705B2, “Method for detecting susceptibility of microorganisms to chemical agents” (Idmic SA, priority 2012, dated 2016)

Key:
Type in all cases: cell-based
[1] = system: Escherichia coli strain resistant to ampicillin and ceftriaxone; assay: Susceptibility testing by MALDI-TOF mass spectra of culture supernatant, Escherichia coli strain resistant to ampicillin and ceftriaxone; settings: treatment with 8 mg/L; resistant E. coli strain; FIG. 3
Protocol: (§1) In a first process step 10, approximately ten colonies of microorganisms of the bacterial type Enterobacteriaceae are added to 1 mL of a liquid Müller-Hinton broth nutrient medium. The turbidity of the microorganisms in the liquid nutrient medium is 0.5 on McFarland standards, corresponding to approximately 1.5×10^8 colony forming units/mL.
(§2) In a second process step 20, 5 μL of 5-25 mM, especially 25 mM of a water-soluble salt of malic acid or ascorbic acid, for example sodium malate as an enhancer for Enterobacteriaceae family bacteria is added into the liquid nutrient medium. The enhancer may also be added into the liquid nutrient medium in solid form.
(§3) In a third process step 30, the microorganisms in the nutrient medium are pre-incubated at 37° C. for 30 minutes.
(§4) In a fourth process step 40, a quantity of a chemical agent or antibiotic equal to the threshold level of the given microorganism according to the Clinical and Laboratory Standards Institute is added to the microorganisms in the liquid nutrient medium.
(§5) In a fifth process step 50, the microorganisms in the nutrient medium are incubated at 37° C. for 60 minutes.
(§6) In a sixth process step 60, the microorganisms are removed from the nutrient medium by centrifugation at 10′000 g or 15′000 g for 5 minutes at room temperature. The remaining supernatant is collected in a new experimental tube. […]

[2] = system: Escherichia coli strain susceptible to ampicillin and ceftriaxone; assay: Susceptibility testing by MALDI-TOF mass spectra of culture supernatant, Escherichia coli strain susceptible to ampicillin and ceftriaxone; settings: treatment with 8 mg/L; susceptible E. coli strain; FIG. 2
Protocol: as §1, §2, §3, §4, §5, §6

[3] = system: Citrobacter ssp strain susceptible to ampicillin and ceftriaxone; assay: Susceptibility testing by MALDI-TOF mass spectra of culture supernatant, Citrobacter ssp strain susceptible to ampicillin and ceftriaxone; settings: treatment with 8 mg/L, FIG. 4
Protocol: as §1, §2, §3, §4, §5, §6

| SMILES | effect on bacteria as seen in mass spectrum of supernatant (protein/peptide signals) [1] | effect on bacteria as seen in mass spectrum of supernatant (protein/peptide signals) [2] | effect on bacteria as seen in mass spectrum of supernatant (protein/peptide signals) [3] |
| --- | --- | --- | --- |
| CO/N=C(\C(=O)N[C@@H]1C(=O)N2C(C(=O)O)=C(CSc3nc(=O)c(=O)[nH]n3C)CS[C@H]12)c1csc(N)n1 [ceftriaxone] | no further significant signal | has been destroyed | has been destroyed |
| CC1(C)S[C@@H]2[C@H](NC(=O)[C@H](N)c3ccccc3)C(=O)N2[C@H]1C(=O)O [ampicillin] | no further significant signal | has been destroyed | has been destroyed |
